Data on one compound can be found in patent US10179107B2, “Tablet containing dehydroepiandrosterone (DHEA)” (PANTARHEI BIOSCIENCE B.V., priority 2011, dated 2019).

The series is described as follows: Daily oral administration of DHEA to female users of hormonal oral contraceptives. Particulars: daily oral dosage of around 50 mg. The format is in vivo, human. The text has this: DHEA can be administered by different routes. Unlike various other known androgens, DHEA is orally active. […] Apart from the ability of DHEA to restore and normalize androgen levels, important significant clinical benefits have been observed on several aspects of sexual function (arousability, responsivity, genital sensation, lubrication), mood and menstrual distress symptoms.

On to `C[C@]12CC[C@H](O)CC1=CC[C@@H]1[C@@H]2CC[C@]2(C)C(=O)CC[C@@H]12` [DHEA, 3-beta-hydroxyandrost-5-en-17-one], for which the estradiol levels result is given as “without increasing estradiol levels”, the “excessively high testosterone levels or clinical symptoms of hyperandrogenicity” value is listed as “without causing excessively high testosterone levels or clinical symptoms of hyperandrogenicity”, the “normalization of free testosterone” value was “at least 50%” and the “normalization of total testosterone” value is recorded as “normalizes total testosterone completely”.
